Laboratory results published in publication PMC6395809 (Scientific Reports, 2019).
Like-named read-outs stand apart in the source and are kept apart here. Values belong to the molecule of their own block, whether it stands above or below them.

Columns and labels:
[1] = test system: BT474 breast cancer cells; assay: Cell proliferation assay (MTT), BT474; format: cell-based; settings: Homo sapiens, BT-474, 72 h, BT474, 3 days
Method: (§1) For proliferation assay BT474, SKBR3 and SKH100 cells were seeded in 8 replicates at 1000 cells/well concentration (25% confluency) in four different 96-well cell culture plates and then incubated with increasing concentration of 1 and 2 for 3 days. Changes in proliferation rate were detected by MTT assay (11465007001 Roche, Cell Proliferation Kit I) following manufacturer instruction. Sterile DMSO was used as control for non-specific solvent effect on proliferation.

[2] = target: T1, GST_SH3_p130Cas recombinant protein (SH3 domain of p130Cas) (Homo sapiens, UniProt P56945); assay: Fluorescence quenching of Fl-GST_SH3_p130Cas by compounds; format: binding
T1 construct: fragment of p130Cas protein (aminoacids 3–71); made in house; host or cells: Escherichia coli BL21
T1 sequence (P56945 3-71): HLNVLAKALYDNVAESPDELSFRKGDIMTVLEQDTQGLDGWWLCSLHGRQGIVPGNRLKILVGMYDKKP
Method: To experimentally validate the binding of compound 1 and 2 on GST_SH3_p130Cas recombinant protein, fluorescence quenching experiments were performed.
The fluorescence spectra of Fl-GST_SH3_p130Cas in the absence and in the presence of 1 and 2 at different concentrations are shown in Fig. 4C.
(§2) All fluorescence spectra were recorded with a Horiba Jobin Yvon Fluorolog3 TCSPC spectrofluorophotometer with 1.0 cm quartz cells For fluorescence experiments, GST_SH3_p130Cas was firstly tagged with fluorescein (Fl-GST_SH3_p130Cas) using a methodology described in the literature[34] see Supporting Information). […] Fluorescence emission spectra of Fl-GST_SH3_p130Cas in the presence of 1 and 2 were obtained using the following concentrations: Fl-GST_SH3_p130Cas = 0.7 μM; 1 and 2 = 0–21 μM.
(§3) The variation in fluorescence emission at 518 nm of Fl-GST_SH3_p130Cas was monitored in all experiments.
Fluorescence data analysis
The obtained spectroscopic data were analysed by a […] non linear least-squares fit procedures reported in Equation 2 2: […]
in which y is the binding derived by measuring fluorescence intensity, [Q] is the concentration of tested compound, Bmax is the maximum amount of protein/compound complex (Fl-GST_SH3_p130Cas/compound) formed at saturation and Kd is the equilibrium dissociation constant. […]

[3] = test system: SKBR3 breast cancer cells; assay: Cell proliferation assay (MTT), SKBR3; format: cell-based; settings: Homo sapiens, SK-BR-3, 72 h, SKBR3, 3 days
Method: as §1

[4] = target: T2, endogenous p130Cas/ErbB2 complex in BT474 cells (Homo sapiens, UniProt P56945); assay: Co-immunoprecipitation of p130Cas/ErbB2 in BT474 cells; format: cell-based; settings: BT474 cells pre-treated for 24 hours
T2 construct: endogenous p130Cas/ErbB2 complex in BT474 cells; host or cells: BT474
T2 sequence (P56945 1-870): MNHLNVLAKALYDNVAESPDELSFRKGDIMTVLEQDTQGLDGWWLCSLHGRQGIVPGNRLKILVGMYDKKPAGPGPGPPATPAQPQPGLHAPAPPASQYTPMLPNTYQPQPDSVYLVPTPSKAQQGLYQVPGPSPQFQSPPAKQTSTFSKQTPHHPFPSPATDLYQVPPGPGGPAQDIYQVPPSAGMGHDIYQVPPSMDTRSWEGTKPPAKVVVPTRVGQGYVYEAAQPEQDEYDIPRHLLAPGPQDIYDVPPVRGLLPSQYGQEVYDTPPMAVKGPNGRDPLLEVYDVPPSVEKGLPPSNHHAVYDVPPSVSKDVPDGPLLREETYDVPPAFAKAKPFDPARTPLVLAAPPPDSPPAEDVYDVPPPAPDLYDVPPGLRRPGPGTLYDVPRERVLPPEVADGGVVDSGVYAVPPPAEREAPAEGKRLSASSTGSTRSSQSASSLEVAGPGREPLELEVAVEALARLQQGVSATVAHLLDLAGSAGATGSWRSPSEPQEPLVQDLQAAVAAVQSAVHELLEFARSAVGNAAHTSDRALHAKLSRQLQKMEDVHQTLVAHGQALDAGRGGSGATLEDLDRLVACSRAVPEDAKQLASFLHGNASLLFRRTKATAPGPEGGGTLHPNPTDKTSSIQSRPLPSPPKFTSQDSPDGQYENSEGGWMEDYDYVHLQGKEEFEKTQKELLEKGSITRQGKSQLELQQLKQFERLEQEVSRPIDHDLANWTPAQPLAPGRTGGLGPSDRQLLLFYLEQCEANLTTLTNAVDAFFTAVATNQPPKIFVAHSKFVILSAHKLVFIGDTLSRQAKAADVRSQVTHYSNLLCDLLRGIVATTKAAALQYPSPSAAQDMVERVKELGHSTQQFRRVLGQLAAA
Method: GAPDH expression was used as loading control. Data are represented as mean ± SD. **p < 0.01, ***p < 0.001.
To assess whether these compounds could interfere with p130Cas/ErbB2 association in a cellular context, ErbB2-positive BT474 breast cancer cells were pre-treated for 24 hours with 1 or 2 and subjected to co-immunoprecipitation experiments.

[5] = test system: ErbB2-negative HEK 293T cells; assay: Proliferation assay of ErbB2-negative HEK 293T cell line; format: cell-based, human; settings: serial dilutions, three days, MTT
Method: Figure S5. Proliferation assay of ErbB2-negative HEK 293T cell line treated with inhibitory […]
To assess whether 1 and 2 could affect cell proliferation independently from p130Cas/ErbB2 inhibition, ErbB2 ErbB2-negative cell line, HEK 293T cells were treated with serial dilutions of 1 and 2 (or sterile DMSO). After three days, live cells were detected by standard MTT assay. […]
any effect even at high concentration.
(1 picture or pasted object on this page, not shown here)

BT474 cells = assay: Cytotoxicity assay (MTT); format: cell-based, human; settings: BT474, three days, serial dilutions 250-0.12 μM
Method: For cytotoxicity assay BT474 cells were seeded at 5000 cells/well concentration (100% confluency) in a 96-well cell culture plate and incubated with serial dilutions of 1 and 2 compounds (from 250 μM to 0.12 μM). Cytotoxicity was evaluated after 3 days by MTT assay (11465007001 Roche, Cell Proliferation Kit I) following manufacturer instruction.

[6] = target: T3, interaction between GST_SH3_p130Cas and MBP_shortPPII_ErbB2 recombinant proteins (Homo sapiens, UniProt P56945); assay: Competitive ELISA binding assay; format: biochemical; settings: increasing concentration of compound
T3 construct: fragment of p130Cas protein (aminoacids 3–71); made in house; host or cells: Escherichia coli BL21
T3 sequence (P56945 3-71): T1 sequence (P56945 3-71)
Method: The day after, washing steps and saturation were performed using PBS and 3%BSA in PBS at room temperature. MBP-tagged ErbB2 purified recombinant proteins and MBP_ctrl (100 nM/well) were added in 100 μl/well of PBS for 2 h. After washing, anti-MBP mouse monoclonal antibody (0.25 μg/ml) was added for 2 h followed by peroxidase conjugated anti-mouse secondary antibody for 1 h.
For validation of inhibitory activity of selected compounds, ELISA binding assay was setup as reported above.

SKBR3 cells = assay: Combination with Trastuzumab in SKBR3 cells (MTT); format: cell-based, human; settings: SKBR3, Trastuzumab 25 μg/ml, three days
Method: (§4) Figure 6 Impact of 1 and 2 compounds on BT474 breast cancer cells. (A) To assess whether 1 and 2 could trigger cytotoxic effects on living cells, BT474 cells were treated with serial dilutions of 1 and 2 (or sterile DMSO). After three days, live cells were detected by standard MTT assay, highlighting the appearance of cytotoxic effects above 75 μM for compound 1. […] Cells were treated with different concentration of the 1 and 2 and proliferation was assayed three days later by performing MTT assay. Results were fitted with four-parameter dose-response curve using GraphPad Prism7 software. […] (E) SKBR3 cells were treated with Trastuzumab (25 μg/ml) either alone or in combination with compound 1 or 2 at the indicated doses. After three days, live cells were detected by standard MTT assay. Data are represented as mean ± SD. *p < 0.05, **p < 0.01. […] After three days, live cells were detected by standard MTT assay. […]
as §1, with “Sterile DMSO was used as control for non-specific solvent effect on proliferation.” left out

[7] = test system: SKH100 Trastuzumab-resistant cells; assay: Combination with Trastuzumab in SKH100 Trastuzumab-resistant cells (MTT); format: cell-based, human; settings: SKH100, Trastuzumab 100 μg/ml, three days
Method: as §4
as §1, with “Sterile DMSO was used as control for non-specific solvent effect on proliferation.” left out

[8] = target: T4, binding between Fl-GST_SH3_p130Cas and MBP_shortPPII_ErbB2 (Homo sapiens, UniProt P56945); assay: Fluorescence experiment: MBP_shortPPII_ErbB2 added to Fl-GST_SH3_p130Cas/compound complex; settings: compared to compound 2; MBP_shortPPII_ErbB2 0.1-0.75 μM
T4 construct: fragment of p130Cas protein (aminoacids 3–71); made in house; host or cells: Escherichia coli BL21
T4 sequence (P56945 3-71): T1 sequence (P56945 3-71)
Method: as §2, with “For” for “All fluorescence spectra were recorded with a Horiba Jobin Yvon Fluorolog3 TCSPC spectrofluorophotometer with 1.0 cm quartz cells For”
as §3

[9] = test system: ErbB2-positive breast cancer patients; settings: cited from earlier work
MBP_shortPPII_ErbB2 [10] = target: T5, MBP_shortPPII_ErbB2 (human (by the printed accession …, UniProt P04626-1 1103-1194)); assay: other fluorescence titration; Fl-GST_SH3_p130Cas fixed at 3.0 μM, MBP_shortPPII_ErbB2 0.05–3.0 μM; emission at 518 nm; nonlinear least-squares fit; settings: both partners purified
T5 construct: ErbB2 cytosolic portion, aminoacids 1103-1194, holds the polyproline type II motif V[RPQPPSP]R at 1145-1153 (isoform 1, P04626-1); the printed residue limits are kept; source: E. coli BL21, purified (Sepharose amylose column), dialyzed against PBS; not shown: MBP, N-terminal, kept

[11] = target: T6, MBP_R → D_shortPPII_ErbB2 (human (by the printed accession …, UniProt P04626-1 1103-1194, R to D at position 44 (position 1146 in the original ErbB2 sequence))); assay: ELISA; direct binding: 100 nM/well of GST_SH3_p130Cas (or mutants) coated in PBS overnight at 4 °C; MBP-tagged ErbB2 proteins (100 nM/well) in PBS for 2 h; detected with anti-MBP; normalized on GST_ctrl and MBP_ctrl; settings: both partners purified
T6 construct: ErbB2 cytosolic portion, aminoacids 1103-1194, with R to D at position 44 of the fragment (1146 in ErbB2); motif V[DPQPPSP]R; source: E. coli BL21, purified (Sepharose amylose column); not shown: MBP, N-terminal, kept

MBP_longPPII_ErbB2 = target: T7, MBP_longPPII_ErbB2 (human (by the printed accession …, UniProt P04626-1 1103-1255)); assay: co-IP; in vitro binding assay: GST-tagged p130Cas and MBP-tagged ErbB2 purified proteins mixed in Interaction Buffer with 1% BSA overnight at 4 °C; immunoprecipitated with anti-MBP and proteinA Sepharose; blot anti-GST; settings: both partners purified
T7 construct: ErbB2 cytosolic portion, aminoacids 1103-1255 (isoform 1, P04626-1); the printed residue limits are kept; source: E. coli BL21, purified (Sepharose amylose column), dialyzed against PBS; not shown: MBP, N-terminal, kept

MBP_shortPPII_ErbB2 [12] = target: T5, MBP_shortPPII_ErbB2; assay: far-Western, overlay or dot blot; 1 μl of GST-tagged p130Cas proteins spotted on nitrocellulose; probed with MBP-tagged ErbB2 protein (1 μg/ml) in Interaction Buffer (50 mM Tris-HCl pH7.4, 150 mM NaCl, 1%Triton-X100) at 4 °C overnight; detected with anti-MBP; settings: both partners purified

Molecule: NS(=O)(=O)N[C@H]1CCCc2ccccc21 [Compound 2]
EC50 [1]: 240 ± 26 µM
Kd ([2]; fluorescence quenching of Fl-GST_SH3_p130Cas, emission at 518 nm, nonlinear least-squares fit, read-out: KD (equilibrium dissociation constant)): 5000 nM
EC50 [3]: 274 ± 27.2 µM
association of p130Cas to ErbB2 (co-immunoprecipitation) [4]: reduced the association
effect on cell proliferation [5]: did not have
concentration at which cytotoxic effects appear (BT474 cells): > 250 µM
inhibition of GST_SH3_p130Cas/MBP_shortPPII_ErbB2 association [6]: dose-dependent inhibition

Molecule: O=C(CNC(=O)NC1CC1)Nc1nnc(C23CC4CC(CC(C4)C2)C3)s1 [Compound 1]
effect on efficacy of Trastuzumab treatment (SKBR3 cells): significantly enhances
EC50 [1]: 52.3 ± 6.38 µM
Kd [2]: 200 nM
association of p130Cas to ErbB2 (co-immunoprecipitation) [4]: reduced the association
effect on sensitivity of resistant cells to Trastuzumab [7]: partially restores
effect on cell proliferation [5]: no significant effect
inhibition of GST_SH3_p130Cas/MBP_shortPPII_ErbB2 association [6]: dose-dependent inhibition
efficiency in preventing binding between Fl-GST_SH3_p130Cas and MBP_shortPPII_ErbB2 [8]: more efficient

Molecule: N#CC(Cc1ccc(O)cc1)c1ccc(O)cc1 (stereo not drawn) [DPN, Diarylpropionitrile, reference compound]
inhibition of GST_SH3_p130Cas/MBP_shortPPII_ErbB2 association [6]: no modulation

Molecule: T-DM1
patients in whom treatment failed to induce response [9]: 57%

More lines, now with the values ahead:

Kd (MBP_shortPPII_ErbB2 [10]): 40.7 nM
B1: Fl-GST_SH3_p130Cas (domain or fragment, UniProt P56945 3-71, looked up)
chain: T1 sequence (P56945 3-71)
modifications: also: fluorescein (site not given here)
notes: source: E. coli BL21, purified (Sepharose glutathione column), then tagged with fluorescein; not shown: GST, N-terminal, kept

binding result [11]: binds
binding result (MBP_longPPII_ErbB2): binds
binding result (MBP_shortPPII_ErbB2 [12]): binds
B2: GST_SH3_p130Cas (domain or fragment, UniProt P56945 3-71, looked up)
chain: T1 sequence (P56945 3-71)
notes: p130Cas SH3 domain, aminoacids 3-71, amplified from cDNA and cloned in pGEX-4T3; also called SH3 domain of p130Cas; source: E. coli BL21, purified (Sepharose glutathione column), dialyzed against PBS; not shown: GST, N-terminal, kept
